In patent US6339046B1, “Pyrazde herbicides” (Syngenta Investment Corporation, priority 1996, dated 2002):

What was measured:
[1] = test system: Ipomoea; test: Post-emergence herbicidal action (Example B2); format: in vivo; parameters: key: 1=complete damage; 9=no action; Score figures of 1 to 4 (in particular 1 to 3) denote a good to very good herbicidal action; settings: 500 g of a.i./ha, sprayed in the 4- to 6-leaf stage, evaluated after approximately 18 days, nine-step scale (1=complete damage, 9=no action)
Method: (§1) Post-emergence Herbicidal Action
(§2) In the greenhouse, monocotyledoneous and dicotyledoneous test plants are grown in standard soil in plastic pots and, in the 4- to 6-leaf stage, sprayed with an aqueous suspension or emulsion of the test substances of the formula I, prepared from a 25% emulsion concentrate (Example F1, c)), which corresponds to a dosage of 500 g of a.i./ha (500 l of water/ha). The test plants are subsequently grown on in the greenhouse under optimal conditions. After a test period of approximately 18 days, the experiment is evaluated on a nine-step scale (1=complete damage, 9=no action). Score figures of 1 to 4 (in particular 1 to 3) denote a good to very good herbicidal action.
(§3) Test plants: Setaria, Sinapis, Solanum, Stellaria, Ipomoea.

[2] = test system: Stellaria; test: Post-emergence herbicidal action (Example B2); format: in vivo; parameters: key: 1=complete damage; 9=no action; Score figures of 1 to 4 (in particular 1 to 3) denote a good to very good herbicidal action; settings: 500 g of a.i./ha, sprayed in the 4- to 6-leaf stage, evaluated after approximately 18 days, nine-step scale (1=complete damage, 9=no action)
Method: as §1, §2, §3

[3] = test system: Sinapis; test: Post-emergence herbicidal action (Example B2); format: in vivo; parameters: key: 1=complete damage; 9=no action; Score figures of 1 to 4 (in particular 1 to 3) denote a good to very good herbicidal action; settings: 500 g of a.i./ha, sprayed in the 4- to 6-leaf stage, evaluated after approximately 18 days, nine-step scale (1=complete damage, 9=no action)
Method: as §1, §2, §3

[4] = test system: Setaria; test: Post-emergence herbicidal action (Example B2); format: in vivo; parameters: key: nine-step scale: 1 = complete damage, 9 = no action; settings: 500 g of a.i./ha, sprayed in the 4- to 6-leaf stage, evaluated after approximately 18 days, nine-step scale (1=complete damage, 9=no action)
Method: as §1, §2, §3

[5] = test system: Solanum; test: Post-emergence herbicidal action (Example B2); format: in vivo; parameters: key: 1=complete damage; 9=no action; Score figures of 1 to 4 (in particular 1 to 3) denote a good to very good herbicidal action; settings: 500 g of a.i./ha, sprayed in the 4- to 6-leaf stage, evaluated after approximately 18 days, nine-step scale (1=complete damage, 9=no action)
Method: as §1, §2, §3

[6] = test system: Setaria; test: Pre-emergence herbicidal action (Example B1); format: in vivo; parameters: key: 1=complete damage; 9=no action; Score figures of 1 to 4 (in particular 1 to 3) denote a good to very good herbicidal action; settings: 500 g of a.i./ha, sprayed immediately after sowing, evaluated after 3 weeks, nine-step scale (1=complete damage, 9=no action)
Method: (§4) Herbicidal Action Before Emergence of the Plants (Pre-emergence Action)
as §2, with “Monocotyledoneous” for “In the greenhouse, monocotyledoneous”, “pots. Immediately after sowing, the test substances are sprayed on” for “pots and,”, “form of” for “4- to 6-leaf stage, sprayed with”, “emulsion,” for “emulsion of the test substances of the formula I,”, “grown” for “grown on”, “3 weeks,” for “approximately 18 days,”
(§5) Test plants: Avena, Setaria, Solanum, Stellaria, Ipomoea.

[7] = test system: Solanum; test: Pre-emergence herbicidal action (Example B1); format: in vivo; parameters: key: 1=complete damage; 9=no action; Score figures of 1 to 4 (in particular 1 to 3) denote a good to very good herbicidal action; settings: 500 g of a.i./ha, sprayed immediately after sowing, evaluated after 3 weeks, nine-step scale (1=complete damage, 9=no action)
Method: as §4
as §2, with “Monocotyledoneous” for “In the greenhouse, monocotyledoneous”, “pots. Immediately after sowing, the test substances are sprayed on” for “pots and,”, “form of” for “4- to 6-leaf stage, sprayed with”, “emulsion,” for “emulsion of the test substances of the formula I,”, “grown” for “grown on”, “3 weeks,” for “approximately 18 days,”
as §5

[8] = test system: Stellaria; test: Pre-emergence herbicidal action (Example B1); format: in vivo; parameters: key: 1=complete damage; 9=no action; Score figures of 1 to 4 (in particular 1 to 3) denote a good to very good herbicidal action; settings: 500 g of a.i./ha, sprayed immediately after sowing, evaluated after 3 weeks, nine-step scale (1=complete damage, 9=no action)
Method: as §4
as §2, with “Monocotyledoneous” for “In the greenhouse, monocotyledoneous”, “pots. Immediately after sowing, the test substances are sprayed on” for “pots and,”, “form of” for “4- to 6-leaf stage, sprayed with”, “emulsion,” for “emulsion of the test substances of the formula I,”, “grown” for “grown on”, “3 weeks,” for “approximately 18 days,”
as §5

[9] = test system: Ipomoea; test: Pre-emergence herbicidal action (Example B1); format: in vivo; settings: 500 g of a.i./ha, sprayed immediately after sowing, evaluated after 3 weeks, nine-step scale (1=complete damage, 9=no action)
Method: as §4
as §2, with “Monocotyledoneous” for “In the greenhouse, monocotyledoneous”, “pots. Immediately after sowing, the test substances are sprayed on” for “pots and,”, “form of” for “4- to 6-leaf stage, sprayed with”, “emulsion,” for “emulsion of the test substances of the formula I,”, “grown” for “grown on”, “3 weeks,” for “approximately 18 days,”
as §5

[10] = test system: Avena; test: Pre-emergence herbicidal action (Example B1); format: in vivo; settings: 500 g of a.i./ha, sprayed immediately after sowing, evaluated after 3 weeks, nine-step scale (1=complete damage, 9=no action)
Method: as §4
as §2, with “Monocotyledoneous” for “In the greenhouse, monocotyledoneous”, “pots. Immediately after sowing, the test substances are sprayed on” for “pots and,”, “form of” for “4- to 6-leaf stage, sprayed with”, “emulsion,” for “emulsion of the test substances of the formula I,”, “grown” for “grown on”, “3 weeks,” for “approximately 18 days,”
as §5

Structure (SMILES): Cc1c(-c2cc(C(=O)OC(C)(C)C(=O)O)c(Cl)cc2F)nn(C)c1C#N [I1, 151]
- Post-emergence action, score, test plant Ipomoea [1]: 1
- Post-emergence action, score, test plant Stellaria [2]: 1
- Post-emergence action, score, test plant Sinapis [3]: 1
- Post-emergence action, score, test plant Setaria [4]: 3

Structure (SMILES): Cc1c(-c2cc(C(=O)O)c(Cl)cc2F)nn(C)c1C#N [I1, 130]
- Post-emergence action, score, test plant Solanum [5]: 1
- Post-emergence action, score, test plant Ipomoea [1]: 1
- Post-emergence action, score, test plant Stellaria [2]: 1
- Post-emergence action, score, test plant Sinapis [3]: 1
- Post-emergence action, score, test plant Setaria [4]: 3

Structure (SMILES): Cc1c(-c2cc(CC(Cl)C(=O)OCc3ccccc3)c(Cl)cc2F)nn(C)c1C#N (centres unmarked) [I1, 122]
- Post-emergence action, score, test plant Solanum [5]: 1
- Post-emergence action, score, test plant Ipomoea [1]: 1
- Post-emergence action, score, test plant Stellaria [2]: 1
- Post-emergence action, score, test plant Sinapis [3]: 1
- Post-emergence action, score, test plant Setaria [4]: 4

Structure (SMILES): COC(=O)c1cc(-c2nn(C)c(C#N)c2C)c(F)cc1Cl [I1, 134]
- Post-emergence action, score, test plant Solanum [5]: 1
- Post-emergence action, score, test plant Ipomoea [1]: 1
- Post-emergence action, score, test plant Stellaria [2]: 1
- Post-emergence action, score, test plant Sinapis [3]: 3
- Post-emergence action, score, test plant Setaria [4]: 5

Structure (SMILES): Cc1c(-c2ccc(Cl)cc2F)nn(C)c1C(N)=S [I5, 001]
- Post-emergence action, score, test plant Solanum [5]: 1
- Post-emergence action, score, test plant Ipomoea [1]: 1
- Post-emergence action, score, test plant Stellaria [2]: 7
- Post-emergence action, score, test plant Sinapis [3]: 7
- Post-emergence action, score, test plant Setaria [4]: 6

Structure (SMILES): C#CCOc1cc(-c2nn(C)c(C#N)c2C)c(F)cc1Cl [I1, 027]
- Post-emergence action, score, test plant Solanum [5]: 1
- Post-emergence action, score, test plant Ipomoea [1]: 1
- Post-emergence action, score, test plant Stellaria [2]: 1
- Post-emergence action, score, test plant Sinapis [3]: 3
- Post-emergence action, score, test plant Setaria [4]: 3

Structure (SMILES): COc1cc(-c2nn(C)c(C#N)c2C)c(F)cc1Cl [I1, 006]
- Post-emergence action, score, test plant Solanum [5]: 1
- Post-emergence action, score, test plant Ipomoea [1]: 1
- Post-emergence action, score, test plant Stellaria [2]: 3
- Post-emergence action, score, test plant Sinapis [3]: 3
- Post-emergence action, score, test plant Setaria [4]: 2

Structure (SMILES): C#CCOc1cc(-c2nn(C)c(C#N)c2C)c(Cl)cc1Cl [I3, 027]
- Post-emergence action, score, test plant Solanum [5]: 1
- Post-emergence action, score, test plant Ipomoea [1]: 3
- Post-emergence action, score, test plant Stellaria [2]: 3
- Post-emergence action, score, test plant Sinapis [3]: 3
- Post-emergence action, score, test plant Setaria [4]: 6

Structure (SMILES): Cc1c(-c2cc(C(=O)OC(C)C)c(Cl)cc2F)nn(C)c1C#N [I1, 140]
- Post-emergence action, score, test plant Solanum [5]: 1
- Post-emergence action, score, test plant Ipomoea [1]: 1
- Post-emergence action, score, test plant Stellaria [2]: 1
- Post-emergence action, score, test plant Sinapis [3]: 4
- Post-emergence action, score, test plant Setaria [4]: 2

Structure (SMILES): Cc1c(-c2cc(C(=O)OC(C)C)c(Cl)cc2F)nn(C)c1C#N [I1.140]
- Pre-emergence action, score, test plant Setaria [6]: 1
- Pre-emergence action, score, test plant Solanum [7]: 2
- Pre-emergence action, score, test plant Stellaria [8]: 1
- Pre-emergence action, score, test plant Ipomoea [9]: 4
- Pre-emergence action, score, test plant Avena [10]: 3

Structure (SMILES): C#CCOc1cc(-c2nn(C)c(C#N)c2C)c(F)cc1Cl [I1.027]
- Pre-emergence action, score, test plant Setaria [6]: 2
- Pre-emergence action, score, test plant Solanum [7]: 1
- Pre-emergence action, score, test plant Stellaria [8]: 1
- Pre-emergence action, score, test plant Ipomoea [9]: 4
- Pre-emergence action, score, test plant Avena [10]: 3
- melting point: 145 to 146 °C

Structure (SMILES): Cc1c(-c2ccc(Cl)cc2F)nn(C)c1C#N [I1, 001]
- Post-emergence action, score, test plant Solanum [5]: 2
- Post-emergence action, score, test plant Ipomoea [1]: 1
- Post-emergence action, score, test plant Stellaria [2]: 5
- Post-emergence action, score, test plant Sinapis [3]: 4
- Post-emergence action, score, test plant Setaria [4]: 3

Structure (SMILES): COc1cc(-c2nn(C)c(C#N)c2C)c(F)cc1Cl [I1.006]
- Pre-emergence action, score, test plant Setaria [6]: 1
- Pre-emergence action, score, test plant Solanum [7]: 1
- Pre-emergence action, score, test plant Stellaria [8]: 1
- Pre-emergence action, score, test plant Ipomoea [9]: 4
- Pre-emergence action, score, test plant Avena [10]: 4

Structure (SMILES): Cc1c(-c2ccc(Cl)cc2F)nn(C)c1C#N [I1.001]
- Pre-emergence action, score, test plant Setaria [6]: 1
- Pre-emergence action, score, test plant Solanum [7]: 1
- Pre-emergence action, score, test plant Stellaria [8]: 6
- Pre-emergence action, score, test plant Ipomoea [9]: 3
- Pre-emergence action, score, test plant Avena [10]: 4
- melting point: 152 to 153 °C

Structure (SMILES): Cc1c(-c2cc(O)c(Cl)cc2Cl)nn(C)c1C#N [Comp. No. I36.103, 3-(2,4-dichloro-5-hydroxyphenyl)-4-methyl-5-cyano-1-methyl-[1H]-pyrazole]
- melting point: 263 to 265 °C

Structure (SMILES): Cc1c(-c2ccc(Cl)cc2F)nn(C)c1C(N)=S [I5.001]
- Pre-emergence action, score, test plant Setaria [6]: 1
- Pre-emergence action, score, test plant Solanum [7]: 1
- Pre-emergence action, score, test plant Stellaria [8]: 7
- Pre-emergence action, score, test plant Ipomoea [9]: 6
- Pre-emergence action, score, test plant Avena [10]: 6

Structure (SMILES): C#CCOc1cc(-c2nn(C)c(C#N)c2C)c(Cl)cc1Cl [Comp. No. I3.027, 3-(2,4-dichloro-5-propargyloxyphenyl)-4-methyl-5-cyano-1-methyl-[1H]-pyrazole]
- Pre-emergence action, score, test plant Setaria [6]: 1
- Pre-emergence action, score, test plant Solanum [7]: 1
- Pre-emergence action, score, test plant Stellaria [8]: 2
- Pre-emergence action, score, test plant Ipomoea [9]: 6
- Pre-emergence action, score, test plant Avena [10]: 6
- melting point: 256 to 257 °C
